Our source for the IC50 values is patent US8124610B2, “Sodium channel inhibitors” (Icagen Inc., priority 2007, dated 2012).

The assay concerns the target T1, hSCN9A (Homo sapiens, UniProt Q15858).
T1 construct: expressed in transfected cells
In words: Whole-cell patch-clamp electrophysiology (conventional or PatchXpress), HEK cells expressing hSCN9A, estimated IC-50. The conditions noted are these: estimated IC-50, HEK cells expressing hSCN9A; class symbols or bounds; read-out: SCN9A EIC-50. The assay is classed as cell-based. On the procedure:
Human Embryonic Kidney (HEK) cells were transfected with hSCN3A or hSCN9A constructs using lipofectamine reagent (Invitrogen), using standard techniques. Cells stably expressing the hSCN3A or hSCN9A constructs were identified by their resistance to G-418 (400 μg/ml). Clones were screened for expression using the whole-cell voltage-clamp technique. HEK cells stably transfected with hSCN3A or hSCN9A were maintained in DMEM medium supplemented with 10% heat-inactivated fetal bovine serum and 400 μg/ml G418 sulfate in an incubator at 37° C. with a humidified atmosphere of 10% CO2. For HTS, cells were harvested from flasks by trypsinization and replated in an appropriate multi-well plate (typically 96 or 384 wells/plate) such that confluence would be achieved within 24 hours of plating. For electrophysiological studies, cells were removed from the culture flask by brief trypsinization and replated at low density onto glass cover slips. Cells were typically used for electrophysiological experiments within 24 to 72 h after plating. Cover slips containing HEK cells expressing hSCN3A or hSCN9A were placed in a bath on the stage of an inverted microscope and perfused (approximately 1 ml/min) with extracellular solution of the following composition: 138 mM NaCl, 2 mM CaCl2, 5.4 mM KCl, 1 mM MgCl2, 10 mM glucose, and 10 mM HEPES, pH 7.4, with NaOH. […] All recordings were made at room temperature (22-24° C.) using AXOPATCH 200B amplifiers and PCLAMP software (Axon Instruments, Burlingame, Calif.) or PatchXpress 7000 hardware and associated software (Axon Instruments, Burlingame, Calif.). hSCN3A or hSCN9A currents in HEK cells were measured using the whole-cell configuration of the patch-clamp technique (Hamill et al., 1981). […] As a result, voltage errors were negligible and no correction was applied. Current records were acquired at 20 to 50 KHz and filtered at 5 to 10 KHz. HEK cells stably transfected with hSCN3A or hSCN9A were viewed under Hoffman contrast optics and placed in front of an array of flow pipes emitting either control or compound-containing extracellular solutions. All compounds were dissolved in dimethyl sulfoxide to make 10 mM stock solutions, which were then diluted into extracellular solution to attain the final concentrations desired. […] The voltage-dependence of inactivation was determined by applying a series of depolarizing prepulses (8 sec long in 10 mV increments) from a negative holding potential. The voltage was then immediately stepped to 0 mV to assess the magnitude of the sodium current. Currents elicited at 0 mV were plotted as a function of prepulse potential to allow estimation of the voltage midpoint of inactivation (V1/2). Cells were then voltage clamped at the empirically determined V1/2. Compounds were tested for their ability to inhibit hSCN3A or hSCN9A sodium channels by activating the channel with a 20 msec voltage step to 0 mV following an 8 second conditioning prepulse to the empirically determined V1-2 (Table B). Compound effect (% inhibition) was determined by difference in current amplitude before and after application of test compounds. […] In some cases electrophysiological assays were conducted with PatchXpress 7000 hardware and associated software (Molecular Devices Corp) (Table B). All assay buffers and solutions were identical to those used in conventional whole-cell voltage clamp experiments described above. hSCN3A or hSCN9A containing cells were grown as above to 50%-80% confluency and harvested by trypsinization. Trypsinized cells were washed and resuspended in extracellular buffer at a concentration of 1×10^6 cells/ml. The onboard liquid handling facility of the PatchXpress was used for dispensing cells and application of test compounds. Determination of the voltage midpoint of inactivation was as described for conventional whole-cell recordings. Cells were then voltage-clamped to the empirically determined V1/2 and current was activated by a 20 msec voltage step to 0 mV.

T1 sequence (Q15858 whole entry): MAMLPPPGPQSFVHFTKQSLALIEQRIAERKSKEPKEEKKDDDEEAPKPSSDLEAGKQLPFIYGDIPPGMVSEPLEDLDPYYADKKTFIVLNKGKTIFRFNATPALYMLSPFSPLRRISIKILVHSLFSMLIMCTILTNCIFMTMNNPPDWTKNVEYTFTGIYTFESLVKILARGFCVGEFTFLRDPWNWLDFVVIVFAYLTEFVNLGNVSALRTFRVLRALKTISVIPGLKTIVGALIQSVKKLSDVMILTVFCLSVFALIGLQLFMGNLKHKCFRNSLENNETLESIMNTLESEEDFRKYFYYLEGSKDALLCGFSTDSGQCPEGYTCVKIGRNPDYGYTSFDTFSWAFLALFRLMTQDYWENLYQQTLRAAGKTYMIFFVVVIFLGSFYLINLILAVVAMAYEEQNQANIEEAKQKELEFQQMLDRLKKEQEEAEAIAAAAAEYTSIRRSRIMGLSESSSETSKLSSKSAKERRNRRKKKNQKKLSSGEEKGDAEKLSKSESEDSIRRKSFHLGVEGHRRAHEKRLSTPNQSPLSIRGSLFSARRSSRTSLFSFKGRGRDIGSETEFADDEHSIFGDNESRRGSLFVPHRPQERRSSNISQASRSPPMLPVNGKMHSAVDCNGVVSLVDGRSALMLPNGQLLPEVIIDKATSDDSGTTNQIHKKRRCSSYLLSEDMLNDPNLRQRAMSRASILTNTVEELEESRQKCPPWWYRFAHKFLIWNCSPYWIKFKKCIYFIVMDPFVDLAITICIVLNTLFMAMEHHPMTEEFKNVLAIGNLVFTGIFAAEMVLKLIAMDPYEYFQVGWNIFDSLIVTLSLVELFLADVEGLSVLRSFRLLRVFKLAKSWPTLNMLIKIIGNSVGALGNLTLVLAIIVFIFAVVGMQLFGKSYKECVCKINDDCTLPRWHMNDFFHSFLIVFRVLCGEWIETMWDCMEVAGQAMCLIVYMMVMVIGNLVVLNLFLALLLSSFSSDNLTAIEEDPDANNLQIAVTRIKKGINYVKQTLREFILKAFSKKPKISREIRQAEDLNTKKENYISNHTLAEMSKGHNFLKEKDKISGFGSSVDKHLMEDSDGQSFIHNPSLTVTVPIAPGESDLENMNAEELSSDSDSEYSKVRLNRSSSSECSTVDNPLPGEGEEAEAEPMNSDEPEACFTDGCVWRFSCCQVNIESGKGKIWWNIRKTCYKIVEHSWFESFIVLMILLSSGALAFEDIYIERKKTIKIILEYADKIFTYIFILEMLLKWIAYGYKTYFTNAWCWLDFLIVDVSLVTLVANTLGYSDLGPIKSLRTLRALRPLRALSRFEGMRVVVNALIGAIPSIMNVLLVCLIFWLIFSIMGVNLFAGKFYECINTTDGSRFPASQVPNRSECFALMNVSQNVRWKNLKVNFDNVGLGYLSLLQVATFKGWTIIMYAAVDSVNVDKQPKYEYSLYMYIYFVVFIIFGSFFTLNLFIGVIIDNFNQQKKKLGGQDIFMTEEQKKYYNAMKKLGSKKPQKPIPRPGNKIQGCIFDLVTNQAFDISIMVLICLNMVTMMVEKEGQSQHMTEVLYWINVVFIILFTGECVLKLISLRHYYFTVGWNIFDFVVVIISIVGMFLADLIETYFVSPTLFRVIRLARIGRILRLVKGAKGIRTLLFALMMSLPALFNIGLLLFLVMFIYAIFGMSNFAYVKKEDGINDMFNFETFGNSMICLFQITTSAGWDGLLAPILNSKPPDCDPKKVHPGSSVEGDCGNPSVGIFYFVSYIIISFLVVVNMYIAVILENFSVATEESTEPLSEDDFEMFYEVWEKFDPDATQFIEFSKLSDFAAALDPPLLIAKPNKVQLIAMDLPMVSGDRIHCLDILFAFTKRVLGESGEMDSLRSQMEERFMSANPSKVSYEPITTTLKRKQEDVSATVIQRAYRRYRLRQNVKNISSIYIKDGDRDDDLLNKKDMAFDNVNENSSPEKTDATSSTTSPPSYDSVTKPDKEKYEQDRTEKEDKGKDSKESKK

As to `Cc1cc(Nc2ccc(S(=O)(=O)Nc3nccs3)c(F)c2)n(C(C)(C)C)n1` [Compound 192, 4-(1-tert-butyl-3-methyl-1H-pyrazol-5-ylamino)-2-fluoro-N-(thiazol-2-yl)benzenesulfonamide], the IC50 was 2000 to 10000 nM.
Consider `CC(C)(C)n1nc(Cc2cccc(Cl)c2)cc1Nc1ccc(S(=O)(=O)Nc2nccs2)cc1` [Compound 194, 4-(1-tert-butyl-3-(3-chlorobenzyl)-1H-pyrazol-5-ylamino)-N-(thiazol-2-yl)benzenesulfonamide], for which the IC50 was 2000 to 10000 nM.
As to `CC(C)(C)n1nc(Cc2cccc(Cl)c2)cc1Nc1ccc(S(=O)(=O)Nc2nccs2)cc1F` [Compound 195, 4-(1-tert-butyl-3-(3-chlorobenzyl)-1H-pyrazol-5-ylamino)-3-fluoro-N-(thiazol-2-yl)benzenesulfonamide], the IC50 is below 2000 nM.
Next, `Cn1nc(Cc2ccc(Cl)c(F)c2)cc1Nc1ccc(S(=O)(=O)Nc2nccs2)cc1` [Compound 196, 4-(3-(4-chloro-3-fluorobenzyl)-1-methyl-1H-pyrazol-5-ylamino)-N-(thiazol-2-yl)benzenesulfonamide]: below 2000 nM.
To `O=S(=O)(Nc1nccs1)c1ccc(Nc2ccn(Cc3ccc(Cl)cc3F)n2)cc1F` [Compound 197, 4-(1-(4-chloro-2-fluorobenzyl)-1H-pyrazol-3-ylamino)-2-fluoro-N-(thiazol-2-yl)benzenesulfonamide] belongs below 2000 nM; to `O=S(=O)(Nc1nccs1)c1ccc(Nc2ncn(Cc3ccc(Cl)cc3)n2)c(F)c1` [Compound 199, 4-(1-(4-chlorobenzyl)-1H-1,2,4-triazol-3-ylamino)-3-fluoro-N-(thiazol-2-yl)benzenesulfonamide], below 2000 nM.
As to `O=S(=O)(Nc1nccs1)c1ccc(Nc2ncn(Cc3cccc(C(F)(F)F)c3)n2)c(F)c1` [Compound 200, 3-fluoro-N-(thiazol-2-yl)-4-(1-(3-(trifluoromethyl)benzyl)-1H-1,2,4-triazol-3-ylamino)benzenesulfonamide], the IC50 was below 2000 nM.
Next, `Cc1cc(Nc2ccc(S(=O)(=O)Nc3nccs3)c(F)c2)n(C2CCN(C)CC2)n1` [Compound 202, 2-fluoro-4-(3-methyl-1-(1-methylpiperidin-4-yl)-1H-pyrazol-5-ylamino)-N-(thiazol-2-yl)benzenesulfonamide]: 2000 to 10000 nM.
To `Cc1cc(Nc2ccc(S(=O)(=O)Nc3nccs3)cc2F)n(-c2ccccc2F)n1` [Compound 203, 3-fluoro-4-(1-(2-fluorophenyl)-3-methyl-1H-pyrazol-5-ylamino)-N-(thiazol-2-yl)benzenesulfonamide] belongs below 2000 nM; to `O=S(=O)(Nc1nccs1)c1ccc(Nc2ncn(Cc3ccc(F)cc3Cl)n2)c(F)c1` [Compound 207, 4-(1-(2-chloro-4-fluorobenzyl)-1H-1,2,4-triazol-3-ylamino)-3-fluoro-N-(thiazol-2-yl)benzenesulfonamide], below 2000 nM; to `O=S(=O)(Nc1nccs1)c1ccc(Nc2ncn(Cc3ccccc3Cl)n2)c(F)c1` [Compound 208, 4-(1-(2-chlorobenzyl)-1H-1,2,4-triazol-3-ylamino)-3-fluoro-N-(thiazol-2-yl)benzenesulfonamide], below 2000 nM.
Consider `Cn1nc(Cc2ccc(Cl)c(F)c2)cc1Nc1ccc(S(=O)(=O)Nc2nccs2)cc1F` [Compound 209, 4-(3-(4-chloro-3-fluorobenzyl)-1-methyl-1H-pyrazol-5-ylamino)-3-fluoro-N-(thiazol-2-yl)benzenesulfonamide], for which the IC50 is below 2000 nM.
Next, `Cn1nc(Cc2ccc(Cl)c(F)c2)cc1Nc1ccc(S(=O)(=O)Nc2nccs2)c(F)c1` [Compound 210, 4-(3-(4-chloro-3-fluorobenzyl)-1-methyl-1H-pyrazol-5-ylamino)-2-fluoro-N-(thiazol-2-yl)benzenesulfonamide]: below 2000 nM; `O=S(=O)(Nc1nccs1)c1ccc(Nc2ccn(Cc3ccccc3)n2)cc1F` [Compound 211, 4-(1-benzyl-1H-pyrazol-3-ylamino)-2-fluoro-N-(thiazol-2-yl)benzenesulfonamide]: 2000 to 10000 nM; `O=S(=O)(Nc1nccs1)c1ccc(Nc2ccn(Cc3ccc(Cl)cc3)n2)cc1C(F)(F)F` [Compound 212, 4-(1-(4-chlorobenzyl)-1H-pyrazol-3-ylamino)-N-(thiazol-2-yl)-2-(trifluoromethyl)benzenesulfonamide]: 2000 to 10000 nM.
To `CN(C)C(=O)Cc1cc(Nc2ccc(S(=O)(=O)Nc3nccs3)c(F)c2)n(-c2ccccc2)n1` [Compound 213, 2-(5-(3-fluoro-4-(N-thiazol-2-ylsulfamoyl)phenylamino)-1-phenyl-1H-pyrazol-3-yl)-N,N-dimethylethanamide] belongs 2000 to 10000 nM; to `COc1ccccc1-n1nc(C(C)(C)C)cc1Nc1ccc(S(=O)(=O)Nc2nccs2)c(F)c1` [Compound 214, 4-(3-tert-butyl-1-(2-methoxyphenyl)-1H-pyrazol-5-ylamino)-2-fluoro-N-(thiazol-2-yl)benzenesulfonamide], below 2000 nM; to `COc1ccccc1-n1nc(C)cc1Nc1ccc(S(=O)(=O)Nc2nccs2)cc1F` [Compound 215, 3-fluoro-4-(1-(2-methoxyphenyl)-3-methyl-1H-pyrazol-5-ylamino)-N-(thiazol-2-yl)benzenesulfonamide], below 2000 nM.
Next, `O=S(=O)(Nc1nccs1)c1ccc(Nc2ccn(Cc3ccc(F)cc3)n2)cc1F` [Compound 217, 2-fluoro-4-(1-(4-fluorobenzyl)-1H-pyrazol-3-ylamino)-N-(thiazol-2-yl)benzenesulfonamide]: below 2000 nM; `Cn1nc(Cc2cccc(Cl)c2)cc1Nc1ccc(S(=O)(=O)Nc2nccs2)cc1` [Compound 218, 4-(3-(3-chlorobenzyl)-1-methyl-1H-pyrazol-5-ylamino)-N-(thiazol-2-yl)benzenesulfonamide]: below 2000 nM; `Cn1nc(Cc2cccc(Cl)c2)cc1Nc1ccc(S(=O)(=O)Nc2nccs2)cc1F` [Compound 219, 4-(3-(3-chlorobenzyl)-1-methyl-1H-pyrazol-5-ylamino)-3-fluoro-N-(thiazol-2-yl)benzenesulfonamide]: below 2000 nM.
In the case of `COc1cccc(-n2nc(C)cc2Nc2ccc(S(=O)(=O)Nc3nccs3)c(F)c2)c1` [Compound 220, 2-fluoro-4-(1-(3-methoxyphenyl)-3-methyl-1H-pyrazol-5-ylamino)-N-(thiazol-2-yl)benzenesulfonamide], the IC50 is below 2000 nM.
To `NC(=O)c1cn(Cc2ccc(Cl)cc2)nc1Nc1ccc(S(=O)(=O)Nc2nccs2)c(F)c1` [Compound 221, 1-(4-chlorobenzyl)-3-(3-fluoro-4-(N-thiazol-2-ylsulfamoyl)phenylamino)-1H-pyrazole-4-carboxamide] belongs 2000 to 10000 nM.
Consider `COc1ccccc1-c1cc(Nc2ccc(S(=O)(=O)Nc3nccs3)c(F)c2)n(C)n1` [Compound 223, 2-fluoro-4-(3-(2-methoxyphenyl)-1-methyl-1H-pyrazol-5-ylamino)-N-(thiazol-2-yl)benzenesulfonamide], for which the IC50 is below 2000 nM.
With `COc1ccc(Cn2ccc(Nc3ccc(S(=O)(=O)Nc4nccs4)c(F)c3)n2)cc1` [Compound 224, 2-fluoro-4-(1-(4-methoxybenzyl)-1H-pyrazol-3-ylamino)-N-(thiazol-2-yl)benzenesulfonamide], the IC50 is below 2000 nM.
Next, `Cc1nn(Cc2ccc(Cl)cc2)c(C)c1Nc1ccc(S(=O)(=O)Nc2nccs2)c(F)c1` [Compound 225, 4-(1-(4-chlorobenzyl)-3,5-dimethyl-1H-pyrazol-4-ylamino)-2-fluoro-N-(thiazol-2-yl)benzenesulfonamide]: 2000 to 10000 nM.
